Source: patent US12281079B2, “Quinoline derivatives, processes for their preparation and uses thereof for the treatment of cancer” (Lead Discovery Center GmbH, priority 2019, dated 2025)
Counter-ions that a name gives are not always drawn.

Experiments:
[1] = biological target: mitochondrial RNA polymerase (POLRMT) (Mus musculus, UniProt Q8BKF1); assay: Homogeneous TR-FRET assay for mitochondrial transcription activity; assay type: biochemical; conditions: homogeneous TR-FRET assay according to Example 4
Sequence of mitochondrial RNA polymerase (POLRMT) (Q8BKF1 42-1207): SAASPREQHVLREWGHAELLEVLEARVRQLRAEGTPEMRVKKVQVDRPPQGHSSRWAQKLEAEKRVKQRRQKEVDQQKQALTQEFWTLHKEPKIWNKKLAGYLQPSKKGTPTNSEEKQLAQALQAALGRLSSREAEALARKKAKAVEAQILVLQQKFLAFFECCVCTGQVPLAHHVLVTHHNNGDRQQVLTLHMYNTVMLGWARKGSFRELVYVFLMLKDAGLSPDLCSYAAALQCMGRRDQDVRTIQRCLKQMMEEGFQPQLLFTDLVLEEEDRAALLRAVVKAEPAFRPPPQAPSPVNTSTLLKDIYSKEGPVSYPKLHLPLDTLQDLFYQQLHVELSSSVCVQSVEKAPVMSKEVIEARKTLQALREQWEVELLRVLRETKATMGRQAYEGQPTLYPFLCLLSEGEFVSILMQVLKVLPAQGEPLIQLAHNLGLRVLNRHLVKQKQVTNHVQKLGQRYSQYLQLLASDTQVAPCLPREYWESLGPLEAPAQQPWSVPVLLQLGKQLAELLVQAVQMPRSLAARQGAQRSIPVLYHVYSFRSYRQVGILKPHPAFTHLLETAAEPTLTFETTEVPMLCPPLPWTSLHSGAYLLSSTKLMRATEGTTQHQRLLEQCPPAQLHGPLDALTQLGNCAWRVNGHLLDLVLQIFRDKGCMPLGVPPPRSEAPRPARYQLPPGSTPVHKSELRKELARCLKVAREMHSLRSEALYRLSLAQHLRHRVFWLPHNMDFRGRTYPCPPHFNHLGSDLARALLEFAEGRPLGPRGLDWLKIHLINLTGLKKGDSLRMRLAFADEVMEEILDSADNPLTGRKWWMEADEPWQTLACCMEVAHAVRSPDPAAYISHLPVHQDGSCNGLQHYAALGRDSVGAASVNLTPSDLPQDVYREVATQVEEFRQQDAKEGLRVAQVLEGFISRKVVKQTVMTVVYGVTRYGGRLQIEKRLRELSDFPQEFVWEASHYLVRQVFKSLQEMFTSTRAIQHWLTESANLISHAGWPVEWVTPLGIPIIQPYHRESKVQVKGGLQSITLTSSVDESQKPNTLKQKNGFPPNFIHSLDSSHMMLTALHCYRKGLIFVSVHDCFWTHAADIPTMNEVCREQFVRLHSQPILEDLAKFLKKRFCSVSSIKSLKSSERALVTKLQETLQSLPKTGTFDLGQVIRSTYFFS
Summary of the method: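 Read-out is TR-FRET (ex 340, em 665 nm) from two adjacent labelled DNA probes annealing to the 407 bp transcript after EDTA/700 mM NaCl stop. Reaction: murine POLRMT, TFAM, TFB2M and LSP plasmid template, compound 10 μM or serial dilution, 10 min rt preincubation, 500 μM each nucleotide, 2 h rt.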

[2] = tested on: mitochondrial transcription (7S RNA) in HeLa cells; assay: Quantitative real time-PCR assay of inhibition of mitochondrial transcription (7S RNA) in HeLa cells; assay type: cell-based; conditions: Homo sapiens, 4 h compound incubation, according to Example 5, read-out: cellular qPCR assay
Procedure: Quantitative real-time PCR (qRT-PCR), based on the TaqMan™ (Thermo Fisher Scientific, Waltham Mass.) technology, was carried out essentially as described in Held et al. (1996). HeLa cells were plated one day before compound treatment in RPMI medium supplemented with 10% Fetal Calf Serum and 2 mM L-glutamine. Cells were incubated with dilution series of compounds or vehicle (DMSO) for 4 h, prior to harvest and extraction of the RNA using the RNeasy Mini Kit (Qiagen, Hilden D), according to the manufacturer's instructions. RNA concentrations were measured spectroscopically, using a NanoDrop-2000 (Thermo Fisher Scientific, Waltham Mass.) and normalized prior to cDNA synthesis, using a ‘High-Capacity cDNA Reverse Transcription Kit’ (Thermo Fisher Scientific, Waltham Mass.). qRT-PCR was carried out using the ‘TaqMan Fast Advance Master Mix’ (Thermo Fisher Scientific, Waltham Mass.) on a 7500 Fast Real-Time PCR machine (Applied Biosystems, Foster City Calif.)
For these measurements, three genes were used to compare the effect of the scrutinized compounds in relation to their concentration. The POLRMT-gene was used to detect potential influences on nuclear transcription. Mitochondrial transcription in vivo was monitored by measurements 7S RNA. The TBP (TATA-box binding protein) gene was employed as the control (housekeeping gene) during qRT-PCR. The short-lived mitochondrial 7S RNA, which is not post-transcriptionally stabilized, allowed us to monitor rapid changes in mitochondrial transcription activity following compound addition. Biological triplicates were analyzed using the comparative CT Method (ΔΔCt) method (Bubner and Baldwin, 2004) and reported as Rq % values (Rq=Relative quantification=2−ΔΔCt).

An IC50 [1] of 0.02 to 0.1 µM and an IC50 [2] of 0.05 to 0.5 µM were found for `C[C@@H](Oc1ccc2c(-c3ccc(F)cc3Cl)ccnc2c1)C(=O)N1CC[C@H](C(=O)O)C1` [Compound 19, (3S)-1-[(2R)-2[[4-(2-chloro-4-fluoro-phenyl)-7-quinolyl]oxy]propanoyl]pyrrolidine-3-carboxylic acid] in this work.
An IC50 [1] of 0.02 to 0.1 µM and an IC50 [2] of 0.01 to 0.05 µM were found for `C[C@@H](Oc1ccc2c(-c3ccc(F)cc3Cl)ccnc2c1)C(=O)N1CCCCC1` [Compound 20, (2R)-2[[4-(2-chloro-4-fluoro-phenyl)-7-quinolyl]oxy]-1-(1-piperidyl)propan-1-one] in this work.
An IC50 [1] of 0.02 to 0.1 µM and an IC50 [2] of 0.5 to 5 µM were found for `Cc1ccccc1-c1cc(Cl)nc2cc(O[C@H](C)C(=O)N3CCC[C@H](CC(=O)O)C3)ccc12` [Compound 21, 2-[(3R)-1-[(2R)-2-[[2-chloro-4-(o-tolyl)-7-quinolyl]oxy]propanoyl]-3-piperidyl]acetic acid] in this work.
An IC50 [1] of 0.02 to 0.1 µM and an IC50 [2] of 0.05 to 0.5 µM were found for `C[C@@H](Oc1ccc2c(-c3ccc(F)cc3Cl)ccnc2c1)C(=O)N1CCC[C@@H](CC(=O)O)C1` [Compound 22, 2-[(3S)-1-[(2R)-2-[[4-(2-chloro-4-fluoro-phenyl)-7-quinolyl]oxy]propanoyl]-3-piperidyl]acetic acid] in this work.
An IC50 [1] of 0.02 to 0.1 µM and an IC50 [2] of 0.05 to 0.5 µM were found for `C[C@@H](Oc1ccc2c(-c3ccc(F)cc3Cl)ccnc2c1)C(=O)N1CCC(C(=O)O)CC1` [Compound 24, 1-[(2R)-2-[[4-(2-chloro-4-fluoro-phenyl)-7-quinolyl]oxy]propanoyl]piperidine-4-carboxylic acid] in this work.
An IC50 [1] of 0.02 to 0.1 µM and an IC50 [2] of 0.01 to 0.05 µM were found for `Cc1ccccc1-c1cc(Cl)nc2cc(O[C@H](C)C(=O)N3CCC[C@H](C(=O)O)C3)ccc12` [Compound 25, (3S)-1-[(2R)-2-[[2-chloro-4-(o-tolyl)-7-quinolyl]oxy]propanoyl]piperidine-3-carboxylic acid] in this work.
An IC50 [1] of 0.02 to 0.1 µM and an IC50 [2] of 0.05 to 0.5 µM were found for `C[C@@H](Oc1ccc2c(-c3ccc(F)cc3Cl)ccnc2c1)C(=O)Nc1cccc(C(=O)O)c1` [Compound 26, 3-[[(2R)-2-[[4-(2-chloro-4-fluoro-phenyl)-7-quinolyl]oxy]propanoyl]amino]benzoic acid] in this work.
An IC50 [1] of 0.02 to 0.1 µM and an IC50 [2] of 0.5 to 5 µM were found for `CCOC(=O)[C@H]1CCCN(C(=O)[C@@H](C)Oc2ccc3c(-c4ccc(F)cc4Cl)ccnc3c2)C1` [Compound 27, ethyl (3S)-1-[(2R)-2-[[4-(2-chloro-4-fluoro-phenyl)-7-quinolyl]oxy]propanoyl]piperidine-3-carboxylate] in this work.
An IC50 [1] of 0.1 to 1 µM and an IC50 [2] of 0.01 to 0.05 µM were found for `CCC(=O)N1CCN(C(=O)[C@@H](C)Oc2ccc3c(-c4ccc(F)cc4Cl)ccnc3c2)CC1` [Compound 28, (R)-2-((4-(2-chloro-4-fluorophenyl)quinolin-7-yl)oxy)-1-(4-propionylpiperazin-1-yl)propan-1-one] in this work.
An IC50 [1] of 0.1 to 1 µM and an IC50 [2] of less than 0.01 µM were found for `C[C@@H](Oc1ccc2c(-c3ccccc3Cl)ccnc2c1)C(=O)OC(C)(C)C` [Compound 29, tert-butyl (2R)-2-[[4-(2-chlorophenyl)-7-quinolyl]oxy]propanoate] in this work.
An IC50 [1] of 0.1 to 1 µM and an IC50 [2] of 0.01 to 0.05 µM were found for `C[C@@H](Oc1ccc2c(-c3ccc(F)cc3Cl)ccnc2c1)C(=O)N1CCC[C@H](C#N)C1` [Compound 30, (3S)-1-[(2R)-2-[[4-(2-chloro-4-fluoro-phenyl)-7-quinolyl]oxy]propanoyl]piperidine-3-carbonitrile] in this work.
An IC50 [1] of 0.1 to 1 µM and an IC50 [2] of less than 0.01 µM were found for `Cc1cc(-c2ccccc2C)c2ccc(O[C@H](C)C(=O)N3CCC[C@H](C(=O)O)C3)cc2n1` [Compound 31, (3S)-1-[(2R)-2-[[2-methyl-4-(o-tolyl)-7-quinolyl]oxy]propanoyl]piperidine-3-carboxylic acid] in this work.
An IC50 [1] of 0.1 to 1 µM and an IC50 [2] of 0.01 to 0.05 µM were found for `CC(C)N(C)C(=O)[C@@H](C)Oc1ccc2c(-c3ccc(F)cc3Cl)ccnc2c1` [Compound 32, (2R)-2-[[4-(2-chloro-4-fluoro-phenyl)-7-quinolyl]oxy]-N-isopropyl-N-methyl-propanamide] in this work.
An IC50 [1] of 0.1 to 1 µM and an IC50 [2] of 0.01 to 0.05 µM were found for `C[C@@H](Oc1ccc2c(-c3ccccc3Cl)cc(Cl)nc2c1)C(=O)N1CCC[C@H](C(=O)O)C1` [Compound 34, (3S)-1-[(2R)-2-[[2-chloro-4-(2-chlorophenyl)-7-quinolyl]oxy]propanoyl]piperidine-3-carboxylic acid] in this work.
An IC50 [1] of 0.1 to 1 µM and an IC50 [2] of less than 0.01 µM were found for `Cc1cc(F)ccc1-c1cc(Cl)nc2cc(O[C@H](C)C(=O)N3CCC[C@H](C(=O)O)C3)ccc12` [Compound 35, (3S)-1-[(2R)-2-[[2-chloro-4-(4-fluoro-2-methyl-phenyl)-7-quinolyl]oxy]propanoyl]piperidine-3-carboxylic acid] in this work.
An IC50 [1] of 0.1 to 1 µM and an IC50 [2] of 0.05 to 0.5 µM were found for `CC(C)OC(=O)[C@@H](C)Oc1ccc2c(-c3ccccc3Cl)ccnc2c1` [Compound 36, (R)-isopropyl 2-((4-(2-chlorophenyl)quinolin-7 yl)oxy)propanoate FA salt] in this work.
An IC50 [1] of 0.1 to 1 µM and an IC50 [2] of 0.01 to 0.05 µM were found for `CNC(=O)[C@H]1CCCN(C(=O)[C@@H](C)Oc2ccc3c(-c4ccc(F)cc4Cl)ccnc3c2)C1` [Compound 38, (3S)-1-[(2R)-2-[[4-(2-chloro-4-fluoro-phenyl)-7-quinolyl]oxy]propanoyl]-N-methyl-piperidine-3-carboxamide] in this work.
An IC50 [1] of 0.1 to 1 µM and an IC50 [2] of 0.05 to 0.5 µM were found for `C[C@@H](Oc1ccc2c(-c3ccc(F)cc3Cl)ccnc2c1)C(=O)N1CC[C@@H](CC(=O)O)C1` [Compound 39, 2-[(3S)-1-[(2R)-2-[[4-(2-chloro-4-fluoro-phenyl)-7-quinolyl]oxy]propanoyl]pyrrolidin-3-yl]acetic acid] in this work.
An IC50 [1] of 0.1 to 1 µM and an IC50 [2] of 0.05 to 0.5 µM were found for `C[C@@H](Oc1ccc2c(-c3ccc(F)cc3Cl)ccnc2c1)C(=O)N1CC[C@H](CC(=O)O)C1` [Compound 40, 2-[(3R)-1-[(2R)-2-[[4-(2-chloro-4-fluoro-phenyl)-7-quinolyl]oxy]propanoyl]pyrrolidin-3-yl]acetic acid] in this work.
An IC50 [1] of 0.1 to 1 µM and an IC50 [2] of 0.5 to 5 µM were found for `CCOC(=O)[C@H]1CCCN(C(=O)[C@@H](C)Oc2ccc3c(-c4ccccc4Cl)cc(F)nc3c2)C1` [Compound 41, ethyl (3S)-1-[(2R)-2-[[4-(2-chlorophenyl)-2-fluoro-7-quinolyl]oxy]propanoyl]piperidine-3-carboxylate] in this work.
An IC50 [1] of 0.1 to 1 µM and an IC50 [2] of 0.05 to 0.5 µM were found for `C[C@@H](Oc1ccc2c(-c3ccc(F)cc3Cl)ccnc2c1)C(=O)N1CCCC1` [Compound 42, (2R)-2-[[4-(2-chloro-4-fluoro-phenyl)-7-quinolyl]oxy]-1-pyrrolidin-1-yl-propan-1-one] in this work.
An IC50 [1] of 0.1 to 1 µM and an IC50 [2] of 0.05 to 0.5 µM were found for `C[C@@H](Oc1ccc2c(-c3ccc(F)cc3Cl)ccnc2c1)C(=O)N(C)C` [Compound 45, (2R)-2-[[4-(2-chloro-4-fluoro-phenyl)-7-quinolyl]oxy]-N,N-dimethyl-propanamide] in this work.
An IC50 [1] of 0.1 to 1 µM and an IC50 [2] of 0.05 to 0.5 µM were found for `O=C(O)[C@H]1CCCN(C(=O)COc2ccc3c(-c4ccccc4Cl)ccnc3c2)C1` [Compound 46, (3S)-1-[2-[[4-(2-chlorophenyl)-7-quinolyl]oxy]acetyl]piperidine-3-carboxylic acid] in this work.
An IC50 [1] of 0.1 to 1 µM and an IC50 [2] of 0.01 to 0.05 µM were found for `C[C@@H](Oc1ccc2c(-c3ccc(F)cc3Cl)ccnc2c1)C(=O)NC(C)(C)C` [Compound 47, (2R)-N-tert-butyl-2-[[4-(2-chloro-4-fluoro-phenyl)-7-quinolyl]oxy]propanamide] in this work.
An IC50 [1] of 0.1 to 1 µM and an IC50 [2] of 0.05 to 0.5 µM were found for `CC(C)NC(=O)[C@@H](C)Oc1ccc2c(-c3ccccc3Cl)ccnc2c1` [Compound 48, (2R)-2-[[4-(2-chlorophenyl)-7-quinolyl]oxy]-N-isopropyl-propanamide] in this work.
An IC50 [1] of 0.1 to 1 µM and an IC50 [2] of 0.01 to 0.05 µM were found for `CCOC(=O)C[C@H]1CCCN(C(=O)[C@@H](C)Oc2ccc3c(-c4ccccc4C)cc(C)nc3c2)C1` [Compound 49, ethyl 2-[(3R)-1-[(2R)-2-[[2-methyl-4-(o-tolyl)-7-quinolyl]oxy]propanoyl]-3-piperidyl]acetate] in this work.
An IC50 [1] of 0.1 to 1 µM and an IC50 [2] of 0.01 to 0.05 µM were found for `CCOC(=O)[C@@H](C)Oc1ccc2c(-c3ccccc3Cl)ccnc2c1` [Compound 50, ethyl (2R)-2-[[4-(2-chlorophenyl)-7-quinolyl]oxy]propanoate] in this work.
An IC50 [1] of 0.1 to 1 µM and an IC50 [2] of 0.01 to 0.05 µM were found for `Cc1ccccc1-c1cc(Cl)nc2cc(O[C@H](C)C(=O)N3CCC[C@H](C(N)=O)C3)ccc12` [Compound 52, (3S)-1-[(2R)-2-[[2-chloro-4-(o-tolyl)-7-quinolyl]oxy]propanoyl]piperidine-3-carboxamide] in this work.
An IC50 [1] of 0.1 to 1 µM and an IC50 [2] of 0.01 to 0.05 µM were found for `C[C@@H](Oc1ccc2c(-c3ccccc3Cl)ccnc2c1)C(=O)N1CCCCC1` [Compound 53, (2R)-2-[[4-(2-chlorophenyl)-7-quinolyl]oxy]-1-(1-piperidyl)propan-1-one] in this work.
